Values after ≈ are worked out from the molar mass of the structure shown.
How the values were obtained:
[1] = tested on: Acinetobacter baumannii; test: Broth microdilution MIC, Acinetobacter baumannii; assay type: cell-based; settings: read-out: MIC
Description: (§1) In vitro antibacterial activities were determined using the broth microdilution method. Assays were performed as described in Clinical and Laboratory Standards Institute protocols in triplicate using cation-adjusted Muller–Hinton broth (Becton Dickinson and Company, Franklin Lakes, NJ, USA) in 96-well plates with a total assay volume of 100 µL. Two-fold serial dilutions of test compounds were prepared over the concentration range of 1–64 µg/mL. The bacterial concentration was adjusted to OD600 = 0.06. […] A 10 µL aliquot from each well in the MIC assays was plated onto Muller–Hinton agar (Becton Dickinson and Company, Franklin Lakes, NJ, USA) and incubated overnight at 37 °C. The lowest concentration of compound for which no growth was observed on agar plates was reported as the minimal bactericidal concentration (MBC).

[2] = tested on: MRSA MW2; test: Time-to-kill assay; assay type: cell-based, Staphylococcus aureus; settings: MRSA MW2, compounds at 64 µg/mL, 4 hr; criteria MBC/MIC and 3 log10 CFU decrease
From the text: Time-to-kill assays were used to further probe bactericidal/bacteriostatic properties against MRSA MW2 (Figure 3). Antibacterial compounds are generally considered bactericidal, if the MBC is no more than four times higher than the MIC. Bactericidal activity is defined as greater than 3 log10 -fold decrease in colony forming units, which is equivalent to 99.9% killing of the inoculum. If the MBC is outside this range, compounds are bacteriostatic. According to these criteria, all five compounds were bacteriostatic.
Time-to-kill assays were performed as previously described. Briefly, overnight cultures of MRSA-MW2 were diluted in fresh Tryptic Soy Broth (TSB) to a density of 10^8 cells/mL and placed into 10 mL tubes (Becton Dickinson and Company, Franklin Lakes, NJ, USA). Test compounds dissolved in DMSO over the concentration range 4–64 µg/mL were added and the tubes incubated at 37 °C. At periodic intervals, aliquots from each tube were serially diluted with TSB and plated onto tryptic soy agar (TSA) (Becton Dickinson and Company, Franklin Lakes, NJ, USA). CFUs were enumerated after overnight incubation at 37 °C. Assays were carried out in triplicate.

[3] = tested on: MRSA-MW2; test: Checkerboard synergy assay (FIC index); assay type: cell-based, Staphylococcus aureus; settings: synergy FIC ≤ 0.5
Description: The combination of two antibiotics with different modes of action can reduce bacterial resistance and sometimes even restore clinical efficacy of an antibiotic that has lost effectiveness. The five compounds were tested against MRSA-MW2 in the presence of five clinical antibiotics from different classes (i.e., polymyxin B, gentamycin, erythromycin, doxycycline, and oxacillin).
Antibacterial synergy for combinations of the compounds with each other and with clinical antibiotics (doxycycline, gentamicin, polymyxin-B, oxacillin, and erythromycin) was measured using checkerboard assays. In short, Cultures of MRSA-MW2 were adjusted to OD600 = 0.06 and one compound was arrayed horizontally and other vertically in 96 well plates. The assays were carried out in triplicate, exactly as described for the antibacterial susceptibility assays. The inhibitory effects of compound combinations were evaluated using the Fractional Inhibitory Concentration (FIC) index, derived from the formula:FIC index = FICA + FICB = [A]/MICA + [B]/MICB
MIC of substance A tested in combination /MIC of substance A tested alone + MIC of substance B tested in combination/MIC of substance B tested alone. Synergy is indicated when FIC ≤ 0.5, indifference when 0.5 ≤ FIC ≤ 4, and antagonism when FIC > 4. Experiments were performed in duplicate and report the average FIC index.

[4] = tested on: Enterobactor aerogens; test: Broth microdilution MIC, Enterobactor aerogens; assay type: cell-based; settings: Enterobactor aerogens; read-out: MIC
Description: as §1

[5] = tested on: clinical S. aureus isolate BF1; test: Broth microdilution MIC, clinical S. aureus isolate BF1; assay type: cell-based; settings: Staphylococcus aureus; BF1; read-out: MIC
Description: as §1

## Cc1cc(I)ccc1Nc1c(C(=O)NOCC2CC2)cc(F)c(F)c1F [PD198306, N-(Cyclopropylmethoxy)-3,4,5-trifluoro-2-[(4-iodo-2-methylphenyl)amino]-benzamide]
[1]
  MIC: 32 µg/mL (≈ 67.2 µM)
[2]
  bactericidal/bacteriostatic classification: bacteriostatic
[3]; with Doxycycline
  Fractional Inhibitory Concentration (FIC) Index: 2.0
[3]; with Erythromycin
  Fractional Inhibitory Concentration (FIC) Index: 0.5
[3]; with Gentamycin
  Fractional Inhibitory Concentration (FIC) Index: 0.625
[3]; with Oxacillin
  Fractional Inhibitory Concentration (FIC) Index: 0.75
[3]; with Polymyxin B
  Fractional Inhibitory Concentration (FIC) Index: 1.0
[4]
  MIC: > 64 µg/mL
[5]
  MIC: 2 µg/mL (≈ 4.2 µM)

Reference: PMC7459823, “Characterization of Five Novel Anti-MRSA Compounds Identified Using a Whole-Animal Caenorhabditis elegans/Galleria mellonella Sequential-Screening Approach” (Antibiotics, 2020)
